We go through eleven molecules from patent US9440984B2, “Pyrrolotriazines as ALK inhibitors” (Cephalon, Inc., priority 2013, dated 2016).

Each structure is given as a SMILES string. Read-outs that look alike come from different tables or passages of the source.

Series [1] deals with T1, ALK (Homo sapiens, UniProt Q9UM73). The series can be described thus: ALK autophosphorylation cellular assay. Format: cell-based. To be noted: read-out: ALK Cell IC50.
Target sequence in this assay (Q9UM73 with tags, fused parts or gaps): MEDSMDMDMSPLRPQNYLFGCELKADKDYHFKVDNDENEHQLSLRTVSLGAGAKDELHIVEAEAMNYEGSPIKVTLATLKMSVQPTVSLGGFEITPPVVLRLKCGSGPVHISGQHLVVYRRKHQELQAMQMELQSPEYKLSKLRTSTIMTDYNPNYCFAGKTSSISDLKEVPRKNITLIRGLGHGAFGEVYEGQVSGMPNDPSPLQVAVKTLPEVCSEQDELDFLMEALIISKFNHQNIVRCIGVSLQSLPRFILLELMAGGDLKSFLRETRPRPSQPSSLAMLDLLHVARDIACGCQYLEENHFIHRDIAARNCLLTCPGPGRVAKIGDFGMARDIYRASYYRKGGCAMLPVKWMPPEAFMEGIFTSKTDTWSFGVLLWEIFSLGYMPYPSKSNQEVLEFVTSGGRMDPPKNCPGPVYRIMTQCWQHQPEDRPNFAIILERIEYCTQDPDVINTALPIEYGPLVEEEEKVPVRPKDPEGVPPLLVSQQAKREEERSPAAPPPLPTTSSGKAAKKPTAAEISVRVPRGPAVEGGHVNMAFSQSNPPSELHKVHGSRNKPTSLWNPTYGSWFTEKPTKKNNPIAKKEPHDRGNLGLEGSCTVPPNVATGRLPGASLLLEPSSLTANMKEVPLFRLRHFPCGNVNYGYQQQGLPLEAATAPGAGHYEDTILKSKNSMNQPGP
Series [2] deals with T1, ALK. The series can be described thus: ALK autophosphorylation enzyme assay. Format: biochemical.
Target sequence in this assay (Q9UM73 19-1620): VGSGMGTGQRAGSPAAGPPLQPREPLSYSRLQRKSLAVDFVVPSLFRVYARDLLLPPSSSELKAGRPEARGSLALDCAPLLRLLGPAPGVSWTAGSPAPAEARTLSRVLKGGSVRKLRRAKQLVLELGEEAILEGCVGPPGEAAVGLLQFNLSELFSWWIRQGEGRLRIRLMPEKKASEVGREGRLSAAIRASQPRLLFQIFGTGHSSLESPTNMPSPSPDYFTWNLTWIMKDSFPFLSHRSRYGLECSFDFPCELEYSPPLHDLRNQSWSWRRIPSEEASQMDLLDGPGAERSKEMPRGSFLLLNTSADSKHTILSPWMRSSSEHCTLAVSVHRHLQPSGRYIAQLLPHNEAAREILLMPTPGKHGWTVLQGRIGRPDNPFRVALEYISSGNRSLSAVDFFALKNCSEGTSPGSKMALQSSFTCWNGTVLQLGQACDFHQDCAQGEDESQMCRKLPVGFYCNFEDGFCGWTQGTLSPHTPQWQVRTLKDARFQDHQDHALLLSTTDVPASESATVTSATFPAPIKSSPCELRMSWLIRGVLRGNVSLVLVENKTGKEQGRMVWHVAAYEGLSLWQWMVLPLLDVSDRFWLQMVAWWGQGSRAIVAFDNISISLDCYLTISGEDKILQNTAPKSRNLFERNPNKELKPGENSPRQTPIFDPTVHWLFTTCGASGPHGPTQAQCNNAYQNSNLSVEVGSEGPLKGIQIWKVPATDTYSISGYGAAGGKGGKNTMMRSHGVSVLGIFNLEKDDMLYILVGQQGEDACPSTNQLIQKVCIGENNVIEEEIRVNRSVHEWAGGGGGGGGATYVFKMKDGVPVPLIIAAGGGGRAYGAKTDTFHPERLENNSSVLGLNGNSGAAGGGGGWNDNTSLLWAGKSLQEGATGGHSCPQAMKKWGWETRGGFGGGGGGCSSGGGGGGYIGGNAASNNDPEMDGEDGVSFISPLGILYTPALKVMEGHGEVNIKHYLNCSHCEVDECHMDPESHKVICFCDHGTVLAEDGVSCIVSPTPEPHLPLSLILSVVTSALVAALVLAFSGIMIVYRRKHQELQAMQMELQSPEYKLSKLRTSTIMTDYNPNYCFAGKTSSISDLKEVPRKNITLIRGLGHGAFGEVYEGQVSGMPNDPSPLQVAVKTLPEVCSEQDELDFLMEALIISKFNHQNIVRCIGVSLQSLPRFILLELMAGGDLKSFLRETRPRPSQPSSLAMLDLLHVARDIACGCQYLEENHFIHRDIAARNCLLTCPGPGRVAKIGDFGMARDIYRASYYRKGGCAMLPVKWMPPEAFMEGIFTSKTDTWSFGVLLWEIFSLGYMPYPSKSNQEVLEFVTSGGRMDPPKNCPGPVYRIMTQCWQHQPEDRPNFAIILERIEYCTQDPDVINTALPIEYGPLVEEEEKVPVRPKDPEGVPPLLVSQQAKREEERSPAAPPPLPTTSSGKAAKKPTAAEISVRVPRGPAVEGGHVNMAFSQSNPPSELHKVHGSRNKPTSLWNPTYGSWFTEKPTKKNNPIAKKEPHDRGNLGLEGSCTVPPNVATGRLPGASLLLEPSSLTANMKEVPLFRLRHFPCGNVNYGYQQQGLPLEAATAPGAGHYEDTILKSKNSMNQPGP
The nature of series [3]: Rat pharmacokinetic (PK) studies.
Series [4] can be described thus: PK/PD study: compound levels in plasma and tumor lysates (LC/MS-MS). It is filed as in vivo. To be noted: Scid mice, single p.o. 30 mg/kg, 6 h and 16 h post dose. The text has this: Exponentially growing cells were implanted subcutaneously to the left flank of each mouse. The mice were monitored and when the tumor xenograft volumes reached approximately 300 to 500 mm3, mice received a single oral administration of either vehicle PEG-400 or the compound of interest (e.g., Examples 14, 16, 16a, and/or 16b) formulated in vehicle. At indicated time points postdosing, the mice were sacrificed, the blood was collected and centrifuged, and the plasma was collected. The tumors were excised and disrupted with a hand-held tissue blender in completed FRAK lysis buffer without Triton X-100. After brief sonication, the lysates were cleared by centrifugation, mixed with sample buffer, and subjected to SDS-PAGE for ALK immunoblotting as described above. The individual bands of phospho- and total NPM-ALK were scanned and quantified with the Gel Pro Analyzer software (Media Cybernetics, Inc.). The relative NPM-ALK tyrosine phosphorylation (phospho-NPMALK/NPM-ALK ratio) of each sample at indicated time points was then calculated, with the average value of vehicle-treated sample(s) as 100. The compound levels in plasma and tumor lysates were measured by liquid chromatography/tandem mass spectrometry (LC/MS-MS).

For series [5], the system named is Sup-M2 ALCL xenografts. Format: in vivo. To be noted: Scid mice, p.o., 10 days; for anti-tumor efficacy (tumor regression): Sup-M2 xenografts.
Protocol: The length (L) and width (W) of each tumor was measured with a Vernier caliper and the mouse body weight was determined every 2 to 3 days. […] Statistical analyses of tumor volumes and mouse body weight were carried out using the Mann-Whitney rank sum test. Plasma and tumor samples were obtained at 2 hours post-final dose, and the compound levels in plasma and tumor lysates were measured by LC/MS-MS.
Where [6] appears, read: Sprague-Dawley rat, i.v., 1 mg/kg.
Setting [7] is: Sprague-Dawley rat, p.o., 5 mg/kg.
[8] abbreviates: Sprague-Dawley, rat, in vivo, po, 5 mg/kg.
The mark [9] stands for this setting: Sprague-Dawley, rat, in vivo, iv, 1 mg/kg.

Consider `COCCN1CC[C@@H](c2ccc(Nc3ncc4ccc(-c5ccccc5OC)n4n3)c(OC)c2)[C@@H](O)C1` (racemic) [Example 1, (±)-3,4-cis-1-(2-Methoxy-ethyl)-4-{3-methoxy-4-[7-(2-methoxy-phenyl)-pyrrolo[2,1-f][1,2,4]triazin-2-ylamino]-phenyl}-piperidin-3-ol], for which the results for the IC50 in series [1] and in series [2] were 50 nM and 3.33 nM, respectively.

`COc1cc([C@@H]2CCNC[C@@H]2O)ccc1Nc1ncc2ccc(-c3cccnc3OC)n2n1` (racemic) [Example 4, (±)-3,4-cis-4-{3-Methoxy-4-[7-(2-methoxy-pyridin-3-yl)-pyrrolo[2,1-f][1,2,4]triazin-2-ylamino]-phenyl}-piperidin-3-ol]: the midpoint of inhibition in series [2], the IC50, lay at 14 nM.

In series [2], `COc1cc([C@@H]2CCNC[C@H]2F)ccc1Nc1ncc2ccc(-c3ccccc3OC)n2n1` (racemic) [Example 5, (±)-[4-(3,4-trans-3-Fluoro-piperidin-4-yl)-2-methoxy-phenyl]-[7-(2-methoxy-phenyl)-pyrrolo[2,1-f][1,2,4]triazin-2-yl]-amine] yielded an IC50 of 5.66 nM.

Regarding `COc1cc(C2CCN(CCO)CC2(F)F)ccc1Nc1ncc2ccc(-c3ccccc3OC)n2n1` (racemic) [Example 9, (±)-2-(3,3-Difluoro-4-{3-methoxy-4-[7-(2-methoxy-phenyl)-pyrrolo[2,1-f][1,2,4]triazin-2-ylamino]-phenyl}-piperidin-1-yl)-ethanol], the IC50 in series [2] came to 28.2 nM.

The molecule `COc1cc([C@@H]2CCN(CC(C)(C)O)C[C@H]2F)ccc1Nc1ncc2ccc(-c3cccnc3OC)n2n1` (racemic) [Example 10, (±)-1-(3,4-trans-3-Fluoro-4-{3-methoxy-4-[7-(2-methoxy-pyridin-3-yl)-pyrrolo[2,1-f][1,2,4]triazin-2-ylamino]-phenyl}-piperidin-1-yl)-2-methyl-propan-2-ol] came in with an IC50 in series [2] of 25.2 nM.

`COc1cc(C2CCN(CCO)CC2(F)F)ccc1Nc1ncc2ccc(-c3cccnc3OC)n2n1` (racemic) [Example 11, (±)-2-(3,3-Difluoro-4-{3-methoxy-4-[7-(2-methoxy-pyridin-3-yl)-pyrrolo[2,1-f][1,2,4]triazin-2-ylamino]-phenyl}-piperidin-1-yl)-ethanol] displayed an IC50 in series [2] of 34 nM.

With `COc1cc(C2CCNCC2(F)F)ccc1Nc1ncc2ccc(-c3cccnc3OC)n2n1` (racemic) [Example 12, (±)-[4-(3,3-Difluoro-piperidin-4-yl)-2-methoxy-phenyl]-[7-(2-methoxy-pyridin-3-yl)-pyrrolo[2,1-f][1,2,4]triazin-2-yl]-amine], the IC50 in series [1] turned out to be 200 nM; in series [2], 13.7 nM.

In the case of `COc1cc([C@@H]2CCN(CCO)C[C@@H]2O)ccc1Nc1ncc2ccc(-c3ccccc3OC)n2n1` (racemic) [Example 14, (±)-3,4-cis-1-(2-Hydroxy-ethyl)-4-{3-methoxy-4-[7-(2-methoxy-phenyl)-pyrrolo[2,1-f][1,2,4]triazin-2-ylamino]-phenyl}-piperidin-3-ol], in series [3] (setting [6]), the “AUC0-∞” value amounted to 371 ± 6 ng·h/mL, the CL is recorded as 46 ± 1 mL/min/kg, the Vd was 9.9 ± 2 L/kg and the t1/2 was 2.5 ± 0.6 h. Also, in series [3] (setting [7]), the “AUC0-∞” value is 479 ± 83 ng·h/mL, the Cmax came out at 85 ± 15 ng/mL and the F % is listed as 26 ± 4%. Also, the Tmax in series [3] (setting [8]) is 6 h. Besides, the “rat PK properties (in words)” value in series [3] (rat) was “acceptable rat PK properties”.

For the molecule `COc1cc([C@@H]2CCN(CCO)C[C@H]2O)ccc1Nc1ncc2ccc(-c3ccccc3OC)n2n1` (racemic) [Example 16, (±)-3,4-trans-1-(2-Hydroxy-ethyl)-4-{3-methoxy-4-[7-(2-methoxy-phenyl)-pyrrolo[2,1-f][1,2,4]triazin-2-ylamino]-phenyl}-piperidin-3-ol], in series [3] (setting [9]), the AUC(0-inf) stood at 459 ± 72 ng·h/mL, the Vd stood at 10.3 ± 1.3 L/kg, the clearance is 39 ± 7 mL/min/kg and the half-life is 3.2 ± 0.6 h. Besides, in series [3] (setting [8]), the AUC(0-inf) stood at 708 ± 63 ng·h/mL, the concentration peaked (Cmax) at 97 ± 10 ng/mL, the Tmax stood at 4 ± 1.2 h and the bioavailability is 31 ± 3%. Also, the “rat PK properties (in words)” value in series [3] (rat) is “acceptable rat PK properties”.

For the molecule `COc1cc([C@H]2CCN(CCO)C[C@@H]2O)ccc1Nc1ncc2ccc(-c3ccccc3OC)n2n1` (single isomer, unassigned) [Example 16b], in series [4], the “plasma and tumor levels, higher than with Example 16a” value is given as 4-10 fold. Moreover, in series [5] (30 mg/kg b.i.d.), the “tolerability (body weight loss, overt toxicity)” value was “well tolerated” and the “anti-tumor efficacy (tumor regression)” value is reported as “Complete tumor regressions”. Also, in series [5] (55 mg/kg b.i.d.), the “tolerability (body weight loss, overt toxicity)” value is recorded as “well tolerated” and the “anti-tumor efficacy (tumor regression)” value is “Complete tumor regressions”.

Turning to `COc1cc(C2CCN(CCO)CC2)ccc1Nc1ncc2ccc(-c3ccccc3OC)n2n1` [Example 18, 2-(4-{3-Methoxy-4-[7-(2-methoxy-phenyl)-pyrrolo[2,1-f][1,2,4]triazin-2-ylamino]-phenyl}-piperidin-1-yl)-ethanol], the IC50 was determined as 150 nM in series [1] and 3 nM in series [2].

Broadly, the IC50 is the concentration that inhibits the measured activity by half. In general, Vd refers to the apparent volume that relates the amount in the body to the concentration in plasma or blood. Low readings indicate little distribution into tissue, high ones wide distribution into tissue. In general, Cmax refers to the maximum level reached in the sampled fluid or tissue. In general, Tmax refers to the time at which the peak concentration occurs. For orientation: AUC(0-inf) means the area under the concentration-time curve extrapolated to infinity. By clearance is commonly meant a measure of how efficiently the substance is removed, as volume per time. Lower therefore signals inefficient removal. In general, half-life refers to the time needed for the level to fall by half in the phase considered. The low end stands for fast loss, the high end for slow loss. The bioavailability is the share of a dose that reaches the circulation, judged against a reference dose that is usually intravenous.
